The values that follow come from patent US7951814B2, “Quinazolinedione derivatives as TRPA1 modulators” (Glenmark Pharmaceuticals, S.A., priority 2008, dated 2011).

Data set [1] can be described thus: Plasma levels after oral dosing in the rat pain models. As to conditions: rat, plasma, oral; for concentration at 4 h: Sprague-Dawley, 10 mg/kg, male SD rats, AITC model. Type of data set: in vivo.
Data set [2] deals with male SD rats. Put plainly: AITC-induced nocifensive behaviour in rats. Type of data set: in vivo, rat. The note with it: 10 mg/kg, p.o., AITC 5%. From the text: (§1) The illustrative examples of the present invention are screened for ‘in vivo’ TRPA1 based efficacy in various models of pain/hyperalgesia according to modified procedures described in (a) McNamara C R et al., PNASU (2007), 104, 13525-13530 (b) Eid S R et al., Molecular Pain, (2008), 4, 48 (c) Bennett G J and Xie Y K, Pain (1988), 33, 87-107. The screening of the compounds can also be carried out by some other methods and procedures known to persons skilled in the art.
AITC-Induced Nocifensive Behaviour in Rats
Allyl isothiocyanate (AITC), a selective activator of TRPA1 receptor channel, induces nocifensive behavior (paw flinching and licking responses) in rats. The number of flinches and licking responses were counted for 45 min following the injection of 5% AITC into the plantar region of the paw. AITC being an activator of TRPA1 receptor, this model serves as a mechanistic validation for screened molecules as selective antagonists at TRPA1 channel receptor.

The target of data set [3] is T1, Human TRPA1 expressing CHO cells (Homo sapiens, UniProt O75762).
T1 construct: expressed in transfected cells; host or cells: CHO cells (under G-418 selection)
Put plainly: 45Calcium uptake assay: inhibition of AITC induced cellular uptake of radioactive calcium. In kind it is cell-based. The note with it: AITC 30 μM; for inhibition at 1 µM: 1.0 μM test compound, read-out: Percentage inhibition at 1.0 μM; for inhibition at 1 µM / inhibition at 10 µM / IC50: human TRPA1 CHO cells; for inhibition at 10 µM: 10.0 μM test compound, read-out: Percentage inhibition at 10.0 μM; for IC50: read-out: IC50 value (range). In short, it runs like this: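 CHO cells expressing human TRPA1 were preincubated 10 min with compound (0.5% DMSO final), then stimulated 3 min with 30 μM AITC plus 5 μCi/ml 45Ca2+. Lysate radioactivity gave % of maximal uninhibited response; IC50 by nonlinear regression.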

In the next data set the test system is rats. Put plainly: FCA (Freund's Complete Adjuvant)-induced inflammatory mechanical hyperalgesia. In kind it is in vivo, rat. The note with it: 30 mg/kg (p.o.); rats.
From the text: as §1
FCA (Freund's Complete Adjuvant)-Induced Inflammatory Hyperalgesia
Freund's Complete Adjuvant (FCA), containing heat killed, dried Mycobaterium tuberculosis (1 mg/ml) emulsified in mineral oil and mannide monooleate, when injected (30 μl) into the plantar region of the paw of mice and rats induces an inflammatory hyperalgesia. Mechanical hyperalgesia (24 h after injection) was assessed by measuring hind paw withdrawal thresholds to an increasing pressure (g) stimulus, using the Randall-Sellitto analgesymeter (37215, Ugo Basile, Italy) fitted with a wedge-shaped probe.

Data set [4] relates to male SD rats. Nature of the data set: Formalin-induced nocifensive behaviour. In kind it is in vivo, rat. As to conditions: 10 mg/kg, p.o., given 1.5 h (compound 10) or 3 h (compound 37) prior to formalin (2.5%).
From the text: as §1
Formalin-Induced Nocifensive Behaviour
Formalin also induces nocifensive behaviour (paw flinching and licking responses) in rats and mice. TRPA1-deficient mice show marked attenuation of characteristic paw flinching and licking responses as a result of intraplantar injection of formalin in a characteristic early and late phase manner. This model also serves as a selective TRPA1 based mechanistic model.
Compound 10 and compound 37 inhibited the formalin-induced nocifensive licking behaviour in both early & late phases in male SD rats.

For orientation: inhibition means the relative decrease from the control value, in per cent. For orientation: IC50 means the concentration needed to halve the response being measured.

The structures appear in SMILES notation.

T1 sequence (O75762 whole entry): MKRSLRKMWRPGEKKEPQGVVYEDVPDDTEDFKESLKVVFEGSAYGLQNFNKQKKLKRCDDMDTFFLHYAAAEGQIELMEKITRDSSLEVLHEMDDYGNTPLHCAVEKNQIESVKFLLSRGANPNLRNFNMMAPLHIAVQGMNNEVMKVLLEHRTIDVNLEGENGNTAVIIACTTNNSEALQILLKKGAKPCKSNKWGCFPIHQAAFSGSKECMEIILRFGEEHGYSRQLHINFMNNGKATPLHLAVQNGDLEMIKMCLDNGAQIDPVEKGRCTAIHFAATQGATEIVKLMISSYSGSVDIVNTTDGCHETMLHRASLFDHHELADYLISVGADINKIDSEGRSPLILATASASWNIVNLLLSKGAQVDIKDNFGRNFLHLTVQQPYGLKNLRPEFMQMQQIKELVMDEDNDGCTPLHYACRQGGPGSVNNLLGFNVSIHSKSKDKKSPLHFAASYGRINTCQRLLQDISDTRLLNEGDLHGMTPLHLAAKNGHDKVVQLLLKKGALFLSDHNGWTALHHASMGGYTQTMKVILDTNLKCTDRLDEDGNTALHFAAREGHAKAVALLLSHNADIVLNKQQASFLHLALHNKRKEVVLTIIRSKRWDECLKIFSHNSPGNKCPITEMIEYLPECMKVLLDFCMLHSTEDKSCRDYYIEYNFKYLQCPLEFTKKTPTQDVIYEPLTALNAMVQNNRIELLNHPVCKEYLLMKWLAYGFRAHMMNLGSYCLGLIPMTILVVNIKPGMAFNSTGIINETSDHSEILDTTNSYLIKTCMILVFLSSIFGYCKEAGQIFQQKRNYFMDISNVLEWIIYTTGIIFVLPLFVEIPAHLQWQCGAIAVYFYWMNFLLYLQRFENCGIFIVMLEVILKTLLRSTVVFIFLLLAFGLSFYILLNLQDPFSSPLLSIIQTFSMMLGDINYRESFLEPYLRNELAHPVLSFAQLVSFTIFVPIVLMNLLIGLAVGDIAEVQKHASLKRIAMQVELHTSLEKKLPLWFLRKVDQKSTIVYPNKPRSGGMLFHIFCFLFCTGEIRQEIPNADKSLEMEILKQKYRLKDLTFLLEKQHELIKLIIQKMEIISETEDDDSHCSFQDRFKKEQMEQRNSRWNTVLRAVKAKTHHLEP

For `Cn1c(=O)c2c(CC(=O)Nc3nc(-c4cccc(C(F)(F)F)c4)cs3)cccc2n(C)c1=O` [Example 15, N1-[4-(3-Trifluoromethylphenyl)-1,3-thiazol-2yl]-2-(1,3-dimethyl-2,4-dioxo-1,2,3,4-tetrahydro-5-quinazolinyl)acetamide], the concentration at 4 h in data set [1] was 9800 ng/mL. For the same molecule, the concentration at 1 h in data set [1] (30 mg/kg (p.o.), FCA model, rats) was found to be 3430 ng/mL. Besides, the “inhibition of AITC induced flinching” value with male SD rats [2] is listed as 59%. Besides, in data set [3], the inhibition at 1 µM was found to be 98%, the inhibition at 10 µM was determined as 100% and the IC50 was under 50 nM. Also, the “maximum efficacy against FCA-induced mechanical hyperalgesia” value in the data set with rats is about 70%.
The molecule `Cn1c(=O)c2c(CC(=O)Nc3nc(-c4ccc(C(F)(F)F)c(F)c4)cs3)cccc2n(C)c1=O` [Example 37, N1-[4-(3-Fluoro-4-trifluoromethylphenyl)-1,3-thiazol-2-yl]-2-(1,3-dimethyl-2,4-dioxo-1,2,3,4-tetrahydro-5-quinazolinyl)acetamide] returned a concentration at 4 h in data set [1] of 6200 ng/mL. Also, in the data set with male SD rats [2], the “inhibition of AITC induced flinching” value came to 39%. In addition, in data set [3], the inhibition at 1 µM was 97.5%, the inhibition at 10 µM came out at 99.4% and the half-inhibitory concentration (IC50) was under 50 nM. In the data set with male SD rats [4], the “inhibition of the early phase nocifensive behaviour” value is given as 18% and the “inhibition of the late phase nocifensive behaviour” value came to 59%.
For the molecule `Cn1c(=O)c2c(CC(=O)Nc3nc(-c4ccc(F)c(C(F)(F)F)c4F)cs3)cccc2n(C)c1=O` [Example 67, N1-{4-[2,4-Difluoro-3-trifluoromethylphenyl]-1,3-thiazol-2-yl}-2-(1,3-dimethyl-2,4-dioxo-1,2,3,4-tetrahydro-5-quinazolinyl)acetamide], in data set [3], the inhibition at 1 µM came to 97.8% and the IC50 is under 50 nM. Also, the inhibition at 3 µM in data set [3] (CHO, 3 μM test compound (printed in the 10.0 μM column), read-out: Percentage inhibition (3 μM)) turned out to be 99.5%.
For the molecule `Cn1c(=O)c2c(CC(=O)Nc3nc(-c4c(F)ccc(C(F)(F)F)c4F)cs3)cccc2n(C)c1=O` [Example 68, N1-{4-[2,6-Difluoro-3-trifluoromethylphenyl]-1,3-thiazol-2-yl}-2-(1,3-dimethyl-2,4-dioxo-1,2,3,4-tetrahydro-5-quinazolinyl)acetamide], in data set [3], the inhibition at 1 µM is 84.6%, the inhibition at 10 µM was determined as 98.6% and the IC50 is over 100 nM.
For `Cn1c(=O)c2c(CC(=O)Nc3nc(-c4cc(F)c(OC(F)F)c(F)c4)cs3)cccc2n(C)c1=O` [Example 69], in that order: 99.9%, 100% and under 50 nM.
As to `Cn1c(=O)c2c(CC(=O)Nc3nc(-c4cc(F)c(OCC(F)(F)F)c(F)c4)cs3)cccc2n(C)c1=O` [Example 70, N1-{4-[3,5-Difluoro-4-(2,2,2-trifluoroethoxy)phenyl]-1,3-thiazol-2-yl}-2-(1,3-dimethyl-2,4-dioxo-1,2,3,4-tetrahydro-5-quinazolinyl)acetamide], in data set [3], the inhibition at 1 µM stood at 100%, the inhibition at 10 µM turned out to be 99.9% and the IC50 is under 50 nM.
As for `COc1c(F)cc(-c2csc(NC(=O)Cc3cccc4c3c(=O)n(C)c(=O)n4C)n2)cc1F` [Example 71, N1-[4-(3,5-Difluoro-4-methoxyphenyl)-1,3-thiazol-2-yl]-2-(1,3-dimethyl-2,4-dioxo-1,2,3,4-tetrahydroquinazolin-5-yl)acetamide], in data set [3], the inhibition at 1 µM is 83.6%, the inhibition at 10 µM is 98.9% and the IC50 was under 50 nM.
For `Cn1c(=O)c2c(CC(=O)Nc3nc(-c4cc(F)c(OCC5CC5)c(F)c4)cs3)cccc2n(C)c1=O` [Example 72, N1-[4-(4-Cyclopropylmethoxy-3,5-difluorophenyl)-1,3-thiazol-2-yl]-2-(1,3-dimethyl-2,4-dioxo-1,2,3,4-tetrahydroquinazolin-5-yl)acetamide], in that order: 95.4%, 96.5% and under 50 nM.
Take `Cn1c(=O)c2c(CC(=O)Nc3nc(-c4c[nH]c5ccccc45)cs3)cccc2n(C)c1=O` [Example 73, N1-[4-(1H-3-Indolyl)-1,3-thiazol-2-yl]-2-(1,3-dimethyl-2,4-dioxo-1,2,3,4-tetrahydro-5-quinazolinyl)acetamide]: in data set [3], the inhibition at 1 µM is 32.5% and the inhibition at 10 µM was 72.6%.
`Cn1c(=O)c2c(CC(=O)Nc3nc(-c4cn(C)c5ccccc45)cs3)cccc2n(C)c1=O` [Example 74]: in data set [3], the inhibition at 1 µM amounted to 96.3%, the inhibition at 10 µM came to 97.7% and the half-maximal inhibitory concentration (IC50) is over 100 nM.
For `Cn1c(=O)c2c(CC(=O)Nc3nc4ccccc4s3)cccc2n(C)c1=O` [Example 75], in data set [3], the inhibition at 1 µM was 5.6% and the inhibition at 10 µM was 30.5%.
With `Cn1c(=O)c2c(CC(=O)Nc3nc4ccc(F)cc4s3)cccc2n(C)c1=O` [Example 76, N1-[6-Fluorobenzo[d][1,3]thiazol-2-yl)-2-(1,3-dimethyl-2,4-dioxo-1,2,3,4-tetrahydro-5-quinazolinyl)acetamide], in data set [3], the inhibition at 1 µM worked out at 33% and the inhibition at 10 µM is 28.5%.
`Cc1cc2nc(NC(=O)Cc3cccc4c3c(=O)n(C)c(=O)n4C)sc2cc1C` [Example 77, N1-(5,6-Dimethylbenzo[d][1,3]thiazol-2-yl)-2-(1,3-dimethyl-2,4-dioxo-1,2,3,4-tetrahydro-5-quinazolinyl)acetamide]: in data set [3], the inhibition at 1 µM stood at 49.1% and the inhibition at 10 µM was 95.5%.
Take `Cn1c(=O)c2c(CC(=O)Nc3nc4c(s3)CCc3cc(Cl)ccc3-4)cccc2n(C)c1=O` [Example 78]: in data set [3], the inhibition at 1 µM was 59.8%, the inhibition at 10 µM was determined as 90.3% and the half-inhibitory concentration (IC50) was over 100 nM.
On to `Cn1c(=O)c2c(CC(=O)Nc3cc(-c4ccc(Cl)cc4)n[nH]3)cccc2n(C)c1=O` [Example 79, N1-[3-(4-Chlorophenyl)-1H,5-pyrazolyl]-2-(1,3-dimethyl-2,4-dioxo-1,2,3,4-tetrahydro-5-quinazolinyl)acetamide], for which, in data set [3], the inhibition at 1 µM is 3.81% and the inhibition at 10 µM came out at 8.12%.
Consider `Cn1c(=O)c2c(CC(=O)Nc3ccn(-c4ccc(Cl)cc4)n3)cccc2n(C)c1=O` [Example 80, N1-[1-(4-Chlorophenyl)-1H,3-pyrazolyl]-2-(1,3-dimethyl-2,4-dioxo-1,2,3,4-tetrahydro-5-quinazolinyl)acetamide], for which, in data set [3], the inhibition at 1 µM amounted to 97.2%, the inhibition at 10 µM was determined as 99.7% and the half-maximal inhibitory concentration (IC50) lay in the range of 50.1 to 100 nM.
With `Cn1c(=O)c2c(CC(=O)Nc3ccn(-c4cccc(C(F)(F)F)c4)n3)cccc2n(C)c1=O` [Example 81, N1-[1-(3-Trifluoromethylphenyl)-1H-3-pyrazolyl]-2-(1,3-dimethyl-2,4-dioxo-1,2,3,4-tetrahydro-5-quinazolinyl)acetamide], in data set [3], the inhibition at 1 µM turned out to be 97.1%, the inhibition at 10 µM turned out to be 99.6% and the IC50 fell in the range of 50.1 to 100 nM.
For `Cn1c(=O)c2c(CC(=O)Nc3ccn(-c4ccc(Cl)cc4F)n3)cccc2n(C)c1=O` [Example 82, N1-[1-(4-Chloro-2-Fluorophenyl)-1H-3-pyrazolyl]-2-(1,3-dimethyl-2,4-dioxo-1,2,3,4-tetrahydro-5-quinazolinyl)acetamide], in data set [3], the inhibition at 1 µM came to 76.7%, the inhibition at 10 µM came out at 90.7% and the concentration for half-maximal inhibition (IC50) was over 100 nM.
As to `Cn1c(=O)c2c(CC(=O)Nc3nnc(-c4ccc(Br)cc4)s3)cccc2n(C)c1=O` [Example 83, N1-[5-(4-Bromophenyl)-1,3,4-thadiazol-2-yl]-2-(1,3-dimethyl-2,4-dioxo-1,2,3,4-tetrahydro-5-quinazolinyl)acetamide], in data set [3], the inhibition at 1 µM is 5.49% and the inhibition at 10 µM is 3.46%.
